Assay results taken from US11731977B2, “SGC stimulators” (Cyclerion Therapeutics, Inc., priority 2016, dated 2023).
Read-outs that look alike come from different tables or passages of the source.

Assays:
[1] = system: cAMP response element-binding protein (CREB); test: pCREB phosphorylation in rat primary neurons (Example 12); type: cell-based; conditions: Primary neuron, 10 μM DETA-NONOate
Text: Objective. To assess the ability of Compound I-1 to activate cAMP response element-binding protein (CREB) in rat primary neurons. CREB is a cellular transcription factor. It binds to DNA sequences called cAMP response elements (CRE), and regulates transcription of the downstream genes (See Bourtchuladze R, et al., Cell 1994; 79 (1): 59-68). […] CREB proteins are activated by phosphorylation of Serine 133 by various kinases, including cAMP-dependent protein kinase or Protein Kinase A (PKA), cGMP-dependent protein kinase or Protein Kinase G (PKG), and Ca2+/calmodulin-dependent protein kinases. (See Shaywitz A J and Greenberg M E, Annual Review of Biochemistry 1999; 68 (1): 821-861 and Wong J C, et al., J Cell Biochem 2012: 113(11):3587-98). Stimulation of CREB could have therapeutic benefits for diseases in which cognition, neuronal plasticity, and or neuronal function is impaired.
Compounds. Compound I-1 was dissolved in DMSO as a 10 mM solution and stored at −20° C. […]
Assay Conditions. […] Medium was removed and cell were lysed and assay was performed according to Cisbio protocol (phospho-CREB (Ser133) catalog #64CREPEG) and the plate was read using Envision instrument (PerkinElmer).
Data Analysis. Data were analyzed with a 4-parameter fit (log(agonist) vs. response—variable slope) using GraphPad Prism Software v.7. […]

rats = test: Acute and tonic pain: healthy rats, tail flick test (Example 13); conditions: Compound I-1 p.o. 10 mg/kg, 120 minutes after treatment
Description: Tail Flick Test. A radiant heat was applied on the tail. When the rat felt discomfort, it reacted by a sudden tail movement (tail flick) which automatically stopped the stimulation and the timer for the measurement by the animal reaction time or nociceptive reaction latency (period from the beginning of the stimulation until detection of the response of the animal). A cut-off was previously fixed at 10 sec in order to prevent tissue damage.
Testing: 120 minutes after treatment. N=4/model/test. Results are expressed for each group as a percentage of activity calculated from the mean value of the vehicle-treated animals and compared to naïve animals, control paw, or cut-off value, depending on the test.

## Fc1ccccc1Cc1nc(-c2nc(C(F)(F)F)n[nH]2)cn2ccnc12 [Compound I-1, 8-(2-fluorobenzyl)-6-(3-(trifluoromethyl)-1H-1,2,4-triazol-5-yl)imidazo[1,2-a]pyrazine]
[1]; read-out: 95% confidence interval of EC50, phosphorylation of CREB at Ser133
  EC50: 0.5 to 17.8 nM
[1]; 0.5 h, 30 min, read-out: EC50, phosphorylation of CREB at Ser133
  EC50: 3 nM
rats
  % of activity vs. vehicle: 25%
